# US20240423208A1, “AGRICULTURAL COMPOSITION AND METHOD FOR CULTIVATING PLANTS USING SAME” (KANEKA CORPORATION, priority 2022, published 2024)
# Assays:
# [1] = system: Lettuce (the cultivar: Souther); assay: Experiment 1: lettuce growth, total dry weight after bottom watering; assay type: in vivo; settings: compositions with 15 mass % GSSG, 10 mass % ALN, 5 mass % ferrous material, 15 mass % seaweed extract; diluted 1000-fold, bottom watering 3 and 4 weeks after seeding
# Method: Lettuce (the cultivar: Souther) was raised in a plant incubator. Three weeks after the seeding and four weeks after the seeding, a composition comprising 15 mass % oxidized glutathione (GSSG), 10 mass % allantoin (ALN), 5 mass % ferrous material, or 15 mass % seaweed extract, or a composition comprising a combination of 15 mass % GSSG and any of 10 mass % ALN, 5 mass % ferrous material, or 15 mass % seaweed extract was applied to the lettuce. Each composition was diluted 1000-fold, and each resulting solution was applied by bottom watering.
# Four weeks after the seeding, the seedling was transplanted into a pot, grown in a glass greenhouse for two weeks, and then, evaluated (repeated 9 times).
# Assuming that the value of the total dry weight of the lettuce to which water alone was applied was 100, the total dry weight of the lettuce to which each composition was applied was expressed.
# [2] = system: Lettuce (the cultivar: Souther); assay: Experiment 2: lettuce growth under high-temperature stress, total dry weight; assay type: in vivo; settings: diluted 1000-fold, bottom watering, 40° C. for two hours
# Method: Lettuce (the cultivar: Souther) was raised in a plant incubator. Three weeks after the seeding and four weeks after the seeding, a fertilizer composition comprising 5 mass % GSSG, 10 mass % ALN, or 20 mass % ALN, a fertilizer composition comprising neither GSSG nor ALN, or a fertilizer composition comprising a combination of 5 mass % GSSG and each concentration of ALN was applied. Each fertilizer composition was diluted 1000-fold, and the resulting solution was applied by bottom watering.
# Four weeks after the seeding, the seedling was transplanted into a pot, subjected to high-temperature stress at 40° C. for two hours in a plant incubator, and grown for one week. Then, the seedling was transferred into a glass greenhouse, grown for one week, and then, evaluated (repeated 9 times).
# Assuming that the value of the total dry weight of the lettuce to which the fertilizer composition comprising neither GSSG nor ALN was applied alone was 100, the total dry weight of the lettuce to which each composition was applied was expressed.
# [3] = system: lettuce (the cultivar: Lollo Rosso or Red Oak); assay: Experiment 10: visual evaluation of lettuce coloration after leaf spraying; assay type: in vivo; design: key: The same degree of coloration as T1 was rated CC; slightly more coloration than T1 was rated BB; much more coloration than T1 was rated AA; settings: GSSG 0.125%, ALN 0.5%; sprayed on leaves approximately 1 g/head; one week after spraying; compared with T1
# Method: Culture soil was put in a 9 cm plastic pot, and seeded with lettuce (the cultivar: Lollo Rosso or Red Oak). After the seeding, the lettuce was grown in an environmentally controlled greenhouse set at 28° C. during the daytime and at 18° C. during the nighttime. Three weeks after the seeding, each test solution shown in Table 5 was sprayed on the leaves at approximately 1 g/head. One week after the spraying, the appearance of the lettuce was visually observed, and the degree of coloration was evaluated. The evaluation was based on a comparison with T1 (the control). The same degree of coloration as T1 was rated CC, slightly more coloration than T1 was rated BB, and much more coloration than T1 was rated AA.
# grape VR cell = assay: Experiment 9: cumulative amount of anthocyanin in cultured grape VR cell; assay type: cell-based; settings: GSSG 0.1%, ALN 0.4%; 10 μL at start and 100 μL on 3rd day; measured on 11th day of culture
# Method: A grape VR cell was cultured in an LS agar culture medium, and the cumulative amount of anthocyanin was measured. The solution for each treatment section as shown in Table 4 was delivered into the cell cluster by drops in an amount of 10 μL at the beginning of the culture, and in an amount of 100 μL on the 3rd day of culture. The amount of anthocyanin was measured on the 11th day of culture. The culture was performed at 27° C. under light irradiation.
Molecule,total dry weight of the lettuce (water alone = 100) [1],"total dry weight of the lettuce (fertilizer composition with neither GSSG nor ALN = 100) ([2]; ALN 10%, GSSG 0% or 5%)","total dry weight of the lettuce (fertilizer composition with neither GSSG nor ALN = 100) ([2]; ALN 20%, GSSG 0% or 5%)","degree of coloration, Lollo Rosso [3]","degree of coloration, Red Oak [3]",cumulative amount of anthocyanin (grape VR cell),"total dry weight of the lettuce (fertilizer composition with neither GSSG nor ALN = 100) ([2]; ALN 0%, GSSG 5 mass %)"
[Fe+2] [Ferrous iron],98,,,,,,
"NC(=O)NC1NC(=O)NC1=O (stereo not drawn) [ALN, 5-ureidohydantoin]",123,104,115,BB,BB,neither GSSG alone nor ALN alone affected,
oxidized glutathione [GSSG],113,,,CC,BB,neither GSSG alone nor ALN alone affected,108
